# Assay results taken from paper PMC8774231, “Point Mutations at a Key Site Alter the Cytochrome P450 OleP Structural Dynamics” (Biomolecules, 2021).
# What was measured:
# Experiment in all cases: UV-visible spectral titration, difference spectra, quadratic fit
# Assay type in all cases: binding
# cytochrome P450 OleP [1] = target: T1, cytochrome P450 OleP (Streptomyces antibioticus, UniProt Q59819, E89Y)
# T1 construct: recombinant His-tagged OleP mutants from pET28b(+)-OleP, expressed in E. coli BL21(DE3), monomer, heme-containing
# T1 sequence (Q59819 1-407 E89Y): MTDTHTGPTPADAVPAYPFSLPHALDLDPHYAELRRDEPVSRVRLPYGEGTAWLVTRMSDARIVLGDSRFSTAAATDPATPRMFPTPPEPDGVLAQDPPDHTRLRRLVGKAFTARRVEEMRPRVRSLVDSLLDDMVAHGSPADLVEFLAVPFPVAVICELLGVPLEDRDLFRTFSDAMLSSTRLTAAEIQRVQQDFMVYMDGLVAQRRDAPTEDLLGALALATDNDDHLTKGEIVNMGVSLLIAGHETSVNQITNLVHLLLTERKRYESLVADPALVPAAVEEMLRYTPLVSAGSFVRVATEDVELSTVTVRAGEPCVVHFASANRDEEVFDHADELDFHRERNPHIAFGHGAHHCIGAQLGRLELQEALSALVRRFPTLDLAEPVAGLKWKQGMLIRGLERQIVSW
# cytochrome P450 OleP [2] = target: T2, cytochrome P450 OleP (Streptomyces antibioticus, UniProt Q59819, G92W)
# T2 construct: recombinant His-tagged OleP mutants from pET28b(+)-OleP, expressed in E. coli BL21(DE3), monomer, heme-containing
# T2 sequence (Q59819 1-407 G92W): T1 sequence (Q59819 1-407 E89Y)
# cytochrome P450 OleP [3] = target: T3, cytochrome P450 OleP (Streptomyces antibioticus, UniProt Q59819, S240Y)
# T3 construct: recombinant His-tagged OleP mutants from pET28b(+)-OleP, expressed in E. coli BL21(DE3), monomer, heme-containing
# T3 sequence (Q59819 1-407 S240Y): T1 sequence (Q59819 1-407 E89Y)
smiles,measurement,setting,value
CC[C@H]1OC(=O)[C@H](C)[C@@H](O)[C@H](C)[C@@H](O)[C@@H](C)C[C@@H](C)C(=O)[C@H](C)[C@@H](O)[C@H]1C [6DEB],Kd,cytochrome P450 OleP [1],8.5 ± 0.8 µM
same,Kd,cytochrome P450 OleP [2],1200 ± 100 nM
same,Kd,cytochrome P450 OleP [3],700 ± 100 nM
